In patent publication US12285422B2, “Uses of piperidinyl-indole derivatives” (priority 2017, dated 2025):

Key:
[1] = system: passive Heymann nephritis in rats; experiment: Passive Heymann nephritis in rats (model for membranous nephropathy); assay type: in vivo, rat; settings: for combined histopathology score: p<0.005; for reduction of proteinuria: twice daily oral gavage, 14 days post transfer, p<0.0001; for proteinuria: 60 mg/kg twice daily oral gavage starting 6 days post serum transfer
Text: 4. FB Inhibitor Prevents the Development and Progression of Passive Heymann Nephritis in Rats
Passive Heymann nephritis in the rat is the most common animal model for membranous nephropathy (see Jefferson J A, Pippin J W and Shankland S J 2010. Experimental Models of membranous nephropathy. Drug Discov Today Dis Models. 7(1-2):27-33). It is induced by the transfer of a polyclonal serum derived from rabbits immunized with rat megalin and manifests inflammatory changes in the kidney that are highly reminiscent with the human disease. Significant proteinuria is observed 4 days after the antibody transfer and increases until 2 weeks post transfer.

[2] = system: human microvascular endothelial cell line (HMEC-1); experiment: C3 deposition on ADP-activated HMEC-1 exposed to STEC-HUS patient serum; assay type: cell-based; settings: for reduction of C3 deposition on ADP-activated HMEC-1: STEC-HUS patient serum, 4 hours, p<0.0001
Method: As described in Morigi et al., 2011 (Morigi M, Galbusera M, Gastoldi S, Locatelli, M, Buelli, S, Pezzotta A, Pagani C, Noris M, Gobbi M, Stravalaci M, Rottoli D, Tedesco F, Remuzzi G and Joja C: 2011. Alternative pathway activation of complement by Shiga toxin promotes exuberant C3a formation that triggers microvascular thrombosis. J Immunol. 187(1):172-80), human microvascular endothelial cell line of dermal origin (HMEC-1, ATCC CRL-3243) were plated on glass slides and used when confluent. […]. At the end of the incubation step HMEC-1 were treated with fluorochrome-conjugated anti-human C3c. In each experiment, a pool of sera from healthy controls was tested in parallel with patient serum. A confocal inverted laser microscope was used for acquisition of the fluorescent staining on endothelial cell surface.
Fifteen fields per sample were acquired and the area occupied by the fluorescent staining was evaluated by automatic edge detection using built-in specific functions of the software Image J and expressed as pixel2 per field analyzed. The highest and lowest values were discarded and the mean±SE was calculated on the remaining 13 fields.
Results: Serum from patients with acute STEC-HUS induced a massive C3 deposition on ADP-activated endothelial cells in respect to sera from healthy controls (P<0.0001). […].

SMILES: CCO[C@H]1CCN(Cc2c(OC)cc(C)c3[nH]ccc23)[C@H](c2ccc(C(=O)O)cc2)C1 [compound of embodiment 5, 4-((2S,4S)-4-ethoxy-1-((5-methoxy-7-methyl-1H-indol-4-yl)methyl)piperidin-2-yl)benzoic acid]
- combined histopathology score ([1]; prophylactic, 20 mg/kg, vehicle 2.2): 0.3
- combined histopathology score ([1]; prophylactic, 60 mg/kg, vehicle 2.2): 0.4
- reduction of proteinuria ([1]; prophylactic, 20 mg/kg/d): 82%
- reduction of proteinuria ([1]; prophylactic, 60 mg/kg/d): 75%
- proteinuria ([1]; therapeutic, day 6 (control 0.79)): 0.74
- proteinuria ([1]; therapeutic, day 14 (control 1.93)): 0.81
- effect on disease progression ([1]; therapeutic, 60 mg/kg twice daily oral gavage starting after manifestation of proteinuria (6 days post serum transfer)): blocked further progression of the disease
- combined histopathology score ([1]; therapeutic, 60 mg/kg twice daily oral gavage starting day 6, vehicle 2.7): 1.1
- reduction of C3 deposition on ADP-activated HMEC-1 ([2]; 1 microM): 73%
- reduction of C3 deposition on ADP-activated HMEC-1 ([2]; 10 microM): 89%
- C3 deposits on endothelial cells versus cells exposed to control sera ([2]; 10 microM, STEC-HUS serum): did not significantly differ
